Source: ChEMBL document CHEMBL3244189, “Synthesis and antitumor properties of 7-deoxy-7-[(cis- and trans-3-aminocyclohexane)thio]carminomycinone” (1979)
Active and inactive are the calls of the source. The calls are words filed in the database; no cut-off is given here.

Legend:
Assay type in all cases: functional
Bacillus spizizenii [1] = test: Antibacterial activity against Bacillus subtilis ATCC 6633 at 50 ug/ml by plate assay; conditions: read-out: IZ
[2] = test system: Enterobacteria phage lambda; test: Induction of lambda phage production in Escherichia coli W1709 (lambda) assessed as plaque formation up to 50 ug/ml preincubated for 30 mins followed by heart infusion broth and glucose addition measured after 120 mins
L1210 [3] = test: Antitumor activity against mouse L1210 cells allografted in mouse assessed as tumor growth inhibition at 0.25 to 32 mg/kg, ip relative to control; conditions: dose mg/kg 0.25-32; route intraperitoneal
[4] = test system: Enterobacteria phage lambda; test: Induction of lambda phage production in Escherichia coli W1709 (lambda) assessed as plaque formation at 3.1 ug/ml preincubated for 30 mins followed by heart infusion broth and glucose addition measured after 120 mins relative to control
Bacillus spizizenii [5] = test: Antibacterial activity against Bacillus subtilis ATCC 6633 at 3.1 ug/ml by plate assay; conditions: read-out: IZ
L1210 [6] = test: Antitumor activity against mouse L1210 cells allografted in mouse assessed as tumor growth inhibition at 0.64 mg/kg, ip relative to control; conditions: route intraperitoneal

CC(=O)[C@]1(O)Cc2c(O)c3c(c(O)c2[C@@H](S[C@H]2CCC[C@@H](N)C2)C1)C(=O)c1c(O)cccc1C3=O
zone of inhibition at 50 µg/mL (Bacillus spizizenii [1]): 10.3 mm
Activity [2]: inactive
T/C (L1210 [3]): <125

CC(=O)[C@]1(O)Cc2c(O)c3c(c(O)c2[C@@H](S[C@@H]2CCC[C@@H](N)C2)C1)C(=O)c1c(O)cccc1C3=O
zone of inhibition at 50 µg/mL (Bacillus spizizenii [1]): 10.5 mm
Activity [2]: inactive

CC(=O)[C@]1(O)Cc2c(O)c3c(c(O)c2[C@@H](O[C@H]2C[C@H](N)[C@H](O)[C@H](C)O2)C1)C(=O)c1c(O)cccc1C3=O [CARUBICIN]
T/C [4]: 6.2
zone of inhibition at 3.1 µg/mL (Bacillus spizizenii [5]): 19 mm
T/C (L1210 [6]): 157
